Assay results as given in US20150216865A1, “METHODS OF TREATING A BRUTON'S TYROSINE KINASE DISEASE OR DISORDER” (Celgene Avilomics Research, Inc., priority 2012, published 2015).
Like-named read-outs stand apart in the source and are kept apart here.

Key:
Btk [1] = target: Btk (Homo sapiens, UniProt Q06187); test: Clinical single dose study, Btk occupancy in enriched B cells (covalent probe ELISA); type: in vivo
Method: (§1) Btk Target Site Occupancy ELISA: An ELISA method for the detection of free uninhibited Btk in mouse, rat, dog, monkey, and human lysates was developed at Celgene Avilomics Research and a validation of this method in human B cell lysate was performed by a CLIA Certified laboratory (Cambridge Biomedical Laboratories, Boston, Mass.) The parameters that were assessed included: accuracy, linearity, dilution, precision (intra and inter-assay), stability, reference range, freeze-thaw cycles, reportable range, specificity, sensitivity, and carryover. […] Standards and samples were transferred to a streptavidin-coated 96-well ELISA plate and mixed while shaking for 1 h at room temperature. […] After wash, goat α-mouse-HRP (1:5000 dilution in PBS+0.05% Tween-20+0.5% BSA) was added and incubated for 1 h at room temperature. The ELISA was developed with addition of tetramethyl benzidine (TMB) followed by Stop Solution and read at OD 450 nm.
Clinical Study: A double blind, placebo-controlled, ascending single dose, randomized study in normal healthy human volunteers was conducted at a single clinical research unit in accordance with Declaration of Helsinki principles. Informed consent statements were obtained from all subjects prior to inclusion in the study. Subjects were admitted to the unit 1 day before dosing and discharged 96 h after dosing.
Isolation of Enriched B Lymphocyte Population from Human Healthy Volunteers: 21 mL of human whole blood was collected from each subject at each time point into BD® Vacutainer® CPT Cell Preparation Tubes containing sodium heparin. […] Isolated cells were harvested into a clean 50 mL conical tube that was pooled by subject. […] Cell suspensions were diluted in 1 mL of red blood cell lysis buffer for 3 minutes at room temperature. […] The lysates were stored frozen at ≦−70° C. until Btk target site occupancy analysis by ELISA.

Btk [2] = target: T1, Btk (Mus musculus, UniProt P35991); test: Btk occupancy in spleen lysates of CIA mice; type: in vivo
T1 construct: from tissue; host or cells: mouse spleen
T1 sequence (P35991 whole entry): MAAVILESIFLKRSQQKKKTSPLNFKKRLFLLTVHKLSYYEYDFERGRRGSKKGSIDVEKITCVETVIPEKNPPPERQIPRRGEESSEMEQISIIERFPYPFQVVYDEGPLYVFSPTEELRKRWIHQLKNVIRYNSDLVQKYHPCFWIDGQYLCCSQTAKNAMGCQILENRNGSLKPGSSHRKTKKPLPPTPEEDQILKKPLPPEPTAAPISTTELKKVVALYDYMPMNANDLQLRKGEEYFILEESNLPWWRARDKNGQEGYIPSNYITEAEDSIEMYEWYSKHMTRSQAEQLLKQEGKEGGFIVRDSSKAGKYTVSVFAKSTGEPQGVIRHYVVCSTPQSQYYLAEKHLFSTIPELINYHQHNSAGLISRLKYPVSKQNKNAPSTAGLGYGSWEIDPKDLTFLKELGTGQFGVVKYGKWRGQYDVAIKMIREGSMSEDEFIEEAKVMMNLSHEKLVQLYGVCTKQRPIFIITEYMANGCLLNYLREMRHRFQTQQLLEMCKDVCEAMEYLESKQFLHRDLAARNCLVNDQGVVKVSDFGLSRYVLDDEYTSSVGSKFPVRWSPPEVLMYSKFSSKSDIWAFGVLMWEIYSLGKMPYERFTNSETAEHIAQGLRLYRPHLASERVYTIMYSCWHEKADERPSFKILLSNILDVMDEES
Method: Spleen Homogenization: Spleens were harvested from mice, frozen immediately in liquid nitrogen and stored at −80° C. To generate spleen lysates, each spleen was sliced in half and lysed using a Precellys 24 Bead Homogenizer in 500 μL of BioRad Bio-Plex Lysis Buffer plus protease inhibitors. Supernatant was transferred to a fresh microfuge tube and stored frozen at −80° C. until analysis.
as §1
Established Collagen Induced Arthritis Model: Experiments were carried out at Bolder Biopath, Boulder, Colo. All experiments were carried out in compliance with regulations of the Institutional Animal Care and Use Committee and were conducted in accordance with principles and procedures dictated by the highest standards of humane animal care. Dba1 mice were injected at the base of the tail with 150 μL of Freund's Complete Adjuvant (Sigma) containing bovine type II collagen (Elastin Products, Owensville, Mo.) (2 mg/ml) on day 0 and again on day 21. […] Randomization into each group was done after swelling was obviously established in at least one paw, and attempts were made to assure approximately equal mean scores across the groups at the time of enrollment. […] Treatment continued daily (QD at 24 h intervals) through arthritis day 14. […] Clinical scores were assessed for each of the paws on study arthritis days 1-15 using the following scoring system: 0=normal, 1=one hind or fore paw joint affected or minimal diffuse erythema and swelling, 2=two hind or fore paw joints affected or mild diffuse erythema and swelling, 3=three hind or fore paw joints affected or moderate diffuse erythema and swelling, 4=marked diffuse erythema and swelling or =four digit joints affected, 5=severe diffuse erythema and severe swelling entire paw, unable to flex digits.

Sequence of Btk (Homo sapiens, UniProt Q06187) (Q06187 whole entry): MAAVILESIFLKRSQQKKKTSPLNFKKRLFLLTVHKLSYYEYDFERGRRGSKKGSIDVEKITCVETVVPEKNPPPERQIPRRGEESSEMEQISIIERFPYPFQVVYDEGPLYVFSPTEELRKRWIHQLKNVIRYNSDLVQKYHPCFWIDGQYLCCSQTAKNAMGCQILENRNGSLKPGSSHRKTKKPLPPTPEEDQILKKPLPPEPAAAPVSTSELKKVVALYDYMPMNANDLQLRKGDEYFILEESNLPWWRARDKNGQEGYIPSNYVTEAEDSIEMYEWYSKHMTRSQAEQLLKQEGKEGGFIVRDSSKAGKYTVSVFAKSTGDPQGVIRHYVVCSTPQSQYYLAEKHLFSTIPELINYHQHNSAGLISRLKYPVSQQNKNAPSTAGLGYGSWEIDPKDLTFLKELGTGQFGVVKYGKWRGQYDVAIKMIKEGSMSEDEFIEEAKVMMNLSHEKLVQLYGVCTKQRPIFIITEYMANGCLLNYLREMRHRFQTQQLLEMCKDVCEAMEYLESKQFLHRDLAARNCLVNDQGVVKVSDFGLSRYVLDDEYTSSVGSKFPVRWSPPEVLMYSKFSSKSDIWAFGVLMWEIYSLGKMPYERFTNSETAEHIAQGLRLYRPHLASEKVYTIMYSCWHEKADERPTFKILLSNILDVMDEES

C=CC(=O)Nc1cccc(Nc2nc(Nc3ccc(OCCOC)cc3)ncc2F)c1 [Compound 1 besylate, N-(3-(5-fluoro-2-(4-(2-methoxyethoxyl)phenylamino)pyrimidin-4-ylamino)phenyl)acrylamide besylate]
receptor occupancy at 2 mg/kg (Btk [1]; 2 mg/kg, 4 hours, read-out: average cohort Btk occupancy (maximal)): > 97%
time complete or near-complete Btk occupancy was sustained (Btk [1]; 2.0 mg/kg, all 6 subjects): 8 to 24 h
receptor occupancy at 2 mg/kg (Btk [1]; 2.0 mg/kg, within 4 hours, read-out: Btk occupancy, 5 of 6 subjects): > 98%
receptor occupancy at 2 mg/kg (Btk [1]; 2.0 mg/kg, within 4 hours, read-out: Btk occupancy, 6th subject): 84%
average Btk re-synthesis rate (Btk [1]; after single oral 2.0 mg/kg): 3.0 pg Btk/ug protein/hour
free Btk protein levels recovered, % of pre-dose values (Btk [1]; within 96 hours): ~75%
Btk occupancy in spleen (Btk [2]; 30 mg/kg, 2 hours after last dose, besylate): 95%
drug-free Btk protein re-synthesized, % of pre-dose levels (Btk [2]; 24 hours after a 10 mg/kg dose): approximately 60%
Btk occupancy in spleen (Btk [2]; 24 hours after the 3 mg dose): 19%
Btk occupancy in spleen (Btk [2]; 24 hours, dose level 10 mg): > 40%
Btk occupancy in spleen (Btk [2]; 24 hours, dose level 30 mg): > 40%
receptor occupancy at 3 mg/kg (Btk [2]; mouse, 3 mg/kg, 2 hours after last dose): 34%
receptor occupancy at 10 mg/kg (Btk [2]; mouse, 10 mg/kg, 2 hours after last dose): 84%
receptor occupancy at 30 mg/kg (Btk [2]; mouse, 30 mg/kg, 2 hours after last dose): 97%
